Test results published in patent US20160257697A1, “THIOPHENE-SUBSTITUTED TETRACYCLIC COMPOUNDS AND METHODS OFUSE THEREOF FOR THE TREATMENT OF VIRAL DISEASES” (priority 2013, published 2016).
Like-named read-outs stand apart in the source and are kept apart here.

Legend:
Assay in all cases: microbe, parasite or virus in culture
Assay type in all cases: cell-based, Hepatitis C virus (HCV)
[1] = tested on: HCV replicon 1AY93H; settings: Replicon Assay A
Outline: (§1)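 Replicon cells incubated with compound for 3 days in medium with 5% FBS and 0.5% DMSO final. Replicon RNA measured in lysates by multiplex real-time RT-PCR (Neo set) against cyclophilin control, quantified from standard curves of Ct versus log ng replicon total RNA.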

[2] = tested on: HCV replicon 1A; settings: Replicon Assay A
Outline: as §1

[3] = tested on: HCV replicon 2B; settings: Replicon Assay A
Outline: as §1

[4] = tested on: HCV replicon 1AQ30D; settings: Replicon Assay B
Procedure: (§2) In an alternate assay (“Replicon Assay B”), 1000 cells were seeded per well in a 384-well collagen coated black plate from Greiner bio-one (Cat #781946) in 5% FBS. Inhibitors of this invention were added at 24 h post-seeding, and the plates were incubated for 3 days. Cells were subsequently lysed with Qiagen lysis buffer (Cat #1062731) to extract the RNA. HCV replicon RNA level was measured by real-time PCR using the RNA-to-CT kit from Applied Biosystem (Cat #4392656) and genotype-specific primers and probes. The amplicon was located within NS5B. […] (SEQ. ID NO. 2); the probe sequence was FAM-labeled […] (SEQ. ID NO. 3).
(§3) The real-time RT-PCR reactions were run on ABI PRISM 7900HT or Viia7 Sequence Detection System using the following program: 48° C. for 30 minutes, 95° C. for 10 minutes, 40 cycles of 95° C. for 15 sec, 60° C. for 1 minutes.
(§4) Data for replicons 1A, 1AY93H and 2B were obtained using Replicon Assay A and data for replicons 1AQ30D and 1B were obtained using Replicon Assay B.

[5] = tested on: HCV replicon 1B; settings: Replicon Assay B
Procedure: as §2, §3, §4

[6] = read-out: 1A Y93H IC50, replicon 1AY93H
[7] = read-out: 1A Q30D IC50, replicon 1AQ30D
[8] = read-out: 1A Y93H IC50, HCV replicon 1A Y93H
[9] = read-out: 2B IC50, HCV replicon 2B
[10] = Hepatitis C virus, read-out: 1A Q30D IC50 (nM), replicon 1AQ30D
[11] = Hepatitis C virus, read-out: 1A Y93H IC50 (nM), replicon 1AY93H
[12] = Hepatitis C virus, read-out: 2B IC50 (nM), replicon 2B
[13] = read-out: 1A Q30D IC50, HCV replicon 1A Q30D

SMILES | IC50 [1, 6] | IC50 ([2]; replicon 1A) | IC50 ([3]; read-out: 2B IC50, replicon 2B) | IC50 [4, 7] | IC50 ([5]; Hepatitis C virus, replicon 1B) | IC50 [4, 10] | also measured
CCc1ccc(C2Oc3cc(-c4cnc([C@@H]5CCCN5C(=O)[C@@H](NC(=O)OC)C(C)C)[nH]4)cc(F)c3-c3cc4cc(-c5cnc([C@@H]6C[C@H]7C[C@H]7N6C(=O)C(NC(=O)OC)C6CCOC(C)(C)C6)[nH]5)ccc4n32)s1 (single isomer, unassigned) [Compound 201] | 0.002 nM | 1.5 pM | 0.008 nM | 0.015 nM | – | – | IC50 ([5]; replicon 1B): 2.2 pM
COC(=O)N[C@H](C(=O)N1CCC[C@H]1c1ncc(-c2ccc3c(c2)OC(c2cc4sccc4s2)n2c-3cc3cc(-c4c[nH]c([C@@H]5C[C@H]6C[C@H]6N5C(=O)[C@@H](NC(=O)OC)C(C)C)n4)ccc32)[nH]1)C(C)C (single isomer, unassigned) [Compound 716] | – | – | – | – | – | – | IC50 [1, 8]: 1.28 nM; IC50 ([2]; HCV replicon 1A): 3.8 pM; IC50 [3, 9]: 2.33 nM; IC50 ([4]; Hepatitis C virus, read-out: 1A Q30D IC50, HCV replicon 1A Q30D): 28 nM; IC50 ([5]; Hepatitis C virus, HCV replicon 1B): 4 pM
COC(=O)NC(C(=O)N1CCC[C@H]1c1ncc(-c2ccc3c(c2)cc2n3C(c3ccc(C4CC4)s3)Oc3cc(-c4cnc([C@@H]5CCCN5C(=O)[C@@H](NC(=O)OC)C(C)C)[nH]4)cc(F)c3-2)[nH]1)C1CCCCO1 (single isomer, unassigned) [Compound 343] | 0.37 nM | 1 pM | 0.829 nM | 0.704 nM | – | – | IC50 ([5]; replicon 1B): 2.3 pM
CCCc1ccc(C2Oc3cc(-c4cnc([C@@H]5CCCN5C(=O)[C@@H](NC(=O)OC)C(C)C)[nH]4)cc(F)c3-c3cc4cc(-c5cnc([C@@H]6CCCN6C(=O)[C@@H](NC(=O)OC)C6CCOCC6)[nH]5)ccc4n32)s1 (single isomer, unassigned) [Compound 346] | 0.0414 nM | – | 0.0374 nM | 0.223 nM | 1.3 pM | – | IC50 ([2]; Hepatitis C virus, replicon 1A): 1 pM
COC(=O)N[C@H](C(=O)N1CCC[C@H]1c1ncc(-c2cc(F)c3c(c2)OC(c2ccc(OC)s2)n2c-3cc3cc(-c4cnc([C@@H]5CCCN5C(=O)[C@@H](NC(=O)OC)C(C)C)[nH]4)ccc32)[nH]1)C(C)C (single isomer, unassigned) [Compound 20] | 0.014 nM | – | 0.051 nM | – | 1.1 pM | 0.38 nM | –
COC(=O)NC(C(=O)N1CCC[C@H]1c1ncc(-c2ccc3c(c2)cc2n3C(c3ccc(C4CC4)s3)Oc3cc(-c4cnc([C@@H]5CCCN5C(=O)[C@@H](NC(=O)OC)C(C)C)[nH]4)cc(F)c3-2)[nH]1)C1C[C@@H](C)O[C@@H](C)C1 (stereo partly shown) [Compound 208] | – | – | – | – | 3.2 pM | 0.043 nM | IC50 [1, 11]: 0.008 nM; IC50 ([2]; Hepatitis C virus, replicon 1A): 3.1 pM; IC50 [3, 12]: 0.005 nM
COC(=O)NC(C(=O)N1CCC[C@H]1c1ncc(-c2ccc3c(c2)cc2n3C(c3ccc(CC4CC4)s3)Oc3cc(-c4cnc([C@@H]5CCCN5C(=O)[C@@H](NC(=O)OC)C(C)C)[nH]4)cc(F)c3-2)[nH]1)C1CCO[C@H](C)C1 (stereo partly shown) [Compound 368] | 0.0047 nM | 2.6 pM | 0.0028 nM | 0.0304 nM | – | – | IC50 ([5]; replicon 1B): 3.1 pM
COC(=O)NC(C(=O)N1[C@@H]2C[C@@H]2C[C@H]1c1ncc(-c2ccc3c(c2)cc2n3C(c3ccc(CC4CC4)s3)Oc3cc(-c4cnc([C@@H]5CCCN5C(=O)[C@@H](NC(=O)OC)C(C)C)[nH]4)cc(F)c3-2)[nH]1)C1CCOC(C)(C)C1 (single isomer, unassigned) [Compound 416] | – | – | – | – | – | – | IC50 [1, 8]: 0.0862 nM; IC50 ([2]; HCV replicon 1A): 2.3 pM; IC50 [3, 9]: 0.104 nM; IC50 [4, 13]: 1.24 nM; IC50 ([5]; HCV replicon 1B): 3.1 pM
COC(=O)N[C@H](C(=O)N1CCC[C@H]1c1ncc(-c2cc(F)c3c(c2)OC(c2cc(F)c(C4CC4)s2)n2c-3cc3cc(-c4cnc([C@@H]5CCCN5C(=O)[C@@H](NC(=O)OC)C(C)C)[nH]4)ccc32)[nH]1)C(C)C (single isomer, unassigned) [Compound 72] | 0.01 nM | 2.6 pM | 0.089 nM | – | 1.5 pM | 0.78 nM | –
COC(=O)NC(C(=O)N1[C@@H]2C[C@@H]2C[C@H]1c1ncc(-c2ccc3c(c2)cc2n3C(c3ccc(C4CC4)s3)Oc3cc(-c4cnc([C@@H]5CCCN5C(=O)[C@@H](NC(=O)OC)C(C)C)[nH]4)cc(F)c3-2)[nH]1)C(C)(C)F (stereo partly shown) [Compound 93] | – | – | – | – | 2.5 pM | 0.053 nM | IC50 [1, 11]: 0.007 nM; IC50 ([2]; Hepatitis C virus, replicon 1A): 3 pM; IC50 [3, 12]: 0.054 nM
COC(=O)NC(C(=O)N1CCC[C@H]1c1ncc(-c2ccc3c(c2)cc2n3C(c3ccc(C4CC4)s3)Oc3cc(-c4cnc([C@@H]5CCCN5C(=O)[C@@H](NC(=O)OC)C(C)C)[nH]4)cc(F)c3-2)[nH]1)C1CCO[C@H](C)C1 (single isomer, unassigned) [Compound 138] | 0.019 nM | 1.3 pM | 0.061 nM | 0.67 nM | – | – | IC50 ([5]; replicon 1B): 1.4 pM
COC(=O)NC(C(=O)N1CCC[C@H]1c1ncc(-c2ccc3c(c2)cc2n3C(c3cc(C)c(C)s3)Oc3cc(-c4cnc([C@@H]5CCCN5C(=O)[C@@H](NC(=O)OC)C(C)C)[nH]4)cc(F)c3-2)[nH]1)C(C)(C)F (single isomer, unassigned) [Compound 39] | 0.12 nM | 2 pM | – | – | 1 pM | 0.61 nM | IC50 [3, 12]: 0.45 nM
CCc1ccc(C2Oc3cc(-c4cnc([C@@H]5CCCN5C(=O)[C@@H](NC(=O)OC)C(C)C)[nH]4)cc(F)c3-c3cc4cc(-c5cnc([C@@H]6CCCN6C(=O)[C@H](NC(=O)OC)C6CCOC(C)(C)C6)[nH]5)ccc4n32)s1 (stereo partly shown) [Compound 151] | – | – | – | – | 2.4 pM | 0.022 nM | IC50 [1, 11]: 0.003 nM; IC50 ([2]; Hepatitis C virus, replicon 1A): 2 pM; IC50 [3, 12]: 0.004 nM
CCc1ccc(C2Oc3cc(-c4cnc([C@@H]5CCCN5C(=O)[C@@H](NC(=O)OC)C(C)C)[nH]4)cc(F)c3-c3cc4cc(-c5cnc([C@@H]6CCCN6C(=O)[C@H](NC(=O)OC)C6C[C@@H](C)O[C@@H](C)C6)[nH]5)ccc4n32)s1 (stereo partly shown) [Compound 144] | – | – | – | – | 2.1 pM | 0.057 nM | IC50 [1, 11]: 0.003 nM; IC50 ([2]; Hepatitis C virus, replicon 1A): 3 pM; IC50 [3, 12]: 0.022 nM
COC(=O)NC(C(=O)N1CCC[C@H]1c1ncc(-c2ccc3c(c2)cc2n3C(c3ccc(C(C)C)s3)Oc3cc(-c4cnc([C@@H]5CCCN5C(=O)[C@@H](NC(=O)OC)C(C)C)[nH]4)cc(C)c3-2)[nH]1)C1C[C@@H](C)O[C@@H](C)C1 (single isomer, unassigned) [Compound 366] | 0.0123 nM | 1.9 pM | 0.0053 nM | – | 1.5 pM | 0.0759 nM | –
COC(=O)NC(C(=O)N1CCC[C@H]1c1ncc(-c2ccc3c(c2)cc2n3C(c3ccc(CC4CC4)s3)Oc3cc(-c4cnc([C@@H]5CCCN5C(=O)[C@@H](NC(=O)OC)C(C)C)[nH]4)cc(F)c3-2)[nH]1)C1CCOC(C)(C)C1 (single isomer, unassigned) [Compound 410] | – | – | – | – | – | – | IC50 [1, 8]: 0.0034 nM; IC50 [3, 9]: 0.0041 nM; IC50 [4, 13]: 0.106 nM; IC50 ([5]; HCV replicon 1B): 3.3 pM
COC(=O)N[C@H](C(=O)N1[C@@H]2C[C@@H]2C[C@H]1c1ncc(-c2cc(F)c3c(c2)OC(c2ccc(C4CC4)s2)n2c-3cc3cc(-c4cnc([C@@H]5C[C@H]6C[C@H]6N5C(=O)[C@@H](NC(=O)OC)C(C)C)[nH]4)ccc32)[nH]1)C(C)C (single isomer, unassigned) [Compound 88] | 0.007 nM | – | 0.59 nM | 0.3 nM | – | – | IC50 ([5]; replicon 1B): 1.4 pM
